For seven compounds, IC50 results are on record in BindingDB's records for PubMed 32916382 (Zhejiang University, 2020).

The nature of experiment [1]: Inhibition of TNF-alpha (unknown origin) by ELISA assay. On the technique in general: In an ELISA, binding on a coated surface is turned into a signal by an enzyme label.
The nature of experiment [2]: Inhibition of IL-6 (unknown origin) by ELISA assay.

For the compound `CC(C)=CCN1Cc2cc(Cl)c(Cl)c3nc(S)n(c23)C[C@@H]1C`, the IC50 (commonly the concentration that inhibits the measured activity by half) in experiment [1] is 1.42 µM; in experiment [2], 1.28 µM.

For the compound `CC(C)=CCN1Cc2cc(C)cc3[nH]c(=S)n(c23)CC1C` (centres undefined), the IC50 in experiment [1] was found to be 0.629 µM; in experiment [2], 2 µM.

Turning to `CCCC[C@@H]1OC(=O)C2=CCCC[C@H]21`, the IC50 in experiment [1] is 6.38 µM; in experiment [2] it was 1.63 µM.

As to `CCOC(=O)C1=C(C)N=c2s/c(=C\c3ccc(N4CCOCC4)cc3)c(=O)n2C1c1ccccc1` (centres undefined), the results for the IC50 in experiment [1] and in experiment [2] were 3.31 µM and 0.86 µM, respectively.

With `CCOP(=O)(OCC)SCCSCC`, the values for the IC50 in experiment [1] and in experiment [2] were 1.16 µM and 0.6 µM, respectively.

Take `COP(=O)(OC)Oc1ccc([N+](=O)[O-])cc1`: the IC50 was determined as 0.89 µM in experiment [1] and 0.56 µM in experiment [2].

On to `CCSCCSP(=O)(OC)OC`, for which the concentration for half-maximal inhibition (IC50) turned out to be 20.6 µM in experiment [1] and 13.8 µM in experiment [2].
